Data reported in US10350302B2, “Thymidine kinase diagnostic assay for gene therapy applications” (GenVivo, Inc., priority 2013, dated 2019).

Columns and labels:
[1] = [18F]FHBG whole body biodistribution by PET (FIG. 2); format: in vivo, human
Excerpt: FIG. 2 is whole body coronal images of [^18F]FHBG biodistribution in a healthy human subject at four distinct time periods after 4.53 mCi i.v. injection of the [^18F]FHBG.
In some embodiments, the clearance pattern in a subject determines the length of time delay for measuring background and determining, for example, [^18F]FHBG imaging activity. […] Accordingly, depending upon the organ and subject individual, some time may be required for background levels to decrease in order to measure HSV-TK gene expression. […] In these organ systems, a sufficient threshold for gene therapy suitability may be, for example, at least above 1.0 SUV, at least above 1.5 SUV, at least above 2.0 SUV, at least above 2.5 SUV, at least above 3.0 SUV, at least above 3.5 SUV or at least above 4.0 SUV.
In contrast, some delay may be needed in order to image signals above background levels in, for example, the liver and kidneys. See Yaghoubi et al. Nat. Protocols at vol. 1, p. 3073. Because of the background signals in these organ systems, a sufficient threshold for determination of suitability for gene therapy treatment may be, for example, at least 10% above background, at least 15% above background, at least 20% above background, at least 25% above background, at least 30% above background, at least 35% above background, at least 40% above background, at least 45% above background, at least 50% above background, at least 55% above background, at least 60% above background, at least 65% above background, at least 70% above background, at least 75% above background, at least 80% above background, at least 85% above background, at least 90% above background, at least 95% above background or at least 100% or more above background when measured after a predetermined amount of time. […] Accordingly, [^18F]FHBG signal measurements in the liver should not be taken until after [^18F]FHBG signal levels have decreased to background, approximately 1 to 1½ hours, depending upon clearance rate in each individual subject.

HSV-TK enzyme = settings: cited from earlier work
mammalian TK enzymes = settings: cited from earlier work
[2] = tested on: cells containing HSV-TK-m2; settings: published observations; cited from earlier work
cancer cells = assay: GCV mediated cancer cell kill assay after retroviral transduction; format: cell-based; settings: following retroviral transduction delivery
Excerpt: […]

[3] = healthy human subject, 45.3 minutes to 80.3 minutes
[4] = healthy human subject, 83.3 minutes to 155.6 minutes

Nc1nc2c(ncn2CCC(CO)C[18F])c(=O)[nH]1 (stereo not drawn) [[^18F]FHBG, 9-[4-[^18F]Fluoro-3-(hydroxymethyl)butyl]guanine]
background [18F]FHBG signal in the heart and lungs ([1]; healthy human subject, 4.53 mCi i.v., after administration): virtually no background | [18F]FHBG levels in the liver, kidneys and bladder ([1]; healthy human subject, 4.53 mCi i.v., between 7.6 and 42.6 minutes after administration): high | [18F]FHBG levels in the liver and kidneys [1, 3]: decreased significantly | [18F]FHBG signal in the bladder [1, 3]: persistent high signal | [18F]FHBG levels in the liver and kidneys [1, 4]: decreased even further | [18F]FHBG signal in the bladder [1, 4]: maintenance of high signal levels | [18F]FHBG background in most tissues outside the lower abdomen ([1]; humans): rapidly decreases | affinity as substrate for HSV-TK enzyme (HSV-TK enzyme): high affinity substrate | affinity for mammalian TK enzymes (mammalian TK enzymes): relative low affinity

Nc1nc(O)c2ncn(COC(CO)CO)c2n1 [ganciclovir]
duration of ganciclovir sufficient to kill the majority of cells containing HSV-TK-m2 [2]: 5 days

B1: SEQ ID NO: 18: optimized HSV-TK polynucleotide: A168H, nuclear export sequence, double mutated NLS, codon optimized, splice corrected (nucleic acid)
DNA: GTCAGCGGCCGCACCGGTACGCGTCCACCATGGCCCTGCAGAAAAAGCTGGAAGAGCTGGAACTGGATGGCAGCTACCCCGGCCACCAGCACGCCAGCGCCTTCGACCAGGCCGCCCGCAGCCGCGGCCACAGCAACGGCAGCACCGCACTGCGGCCAGGATCTCAGCAGGAGGCCACCGAGGTGCGCCCCGAGCAGAAGATGCCCACCCTGCTGCGCGTGTACATCGACGGACCACACGGCATGGGCAAGACCACCACCACCCAGCTGCTGGTGGCCCTGGGCAGCCGCGACGACATCGTGTACGTGCCCGAGCCCATGACCTACTGGCGCGTGCTGGGCGCCAGCGAGACCATCGCCAACATCTACACCACCCAGCACCGCCTGGACCAAGGCGAGATCAGCGCCGGCGACGCCGCCGTGGTGATGACCAGCGCCCAGATTACAATGGGCATGCCCTACGCCGTGACCGACGCCGTGCTGGCACCACACATCGGCGGCGAGGCCGGCAGCAGCCACGCACCACCACCAGCACTGACCCTGATCTTCGACCGGCACCCAATCGCACACCTGCTGTGCTACCCGGCAGCACGCTACCTGATGGGCTCCATGACACCACAAGCCGTGCTGGCCTTCGTGGCCCTGATCCCACCAACACTGCCCGGCACCAACATCGTGCTGGGCGCCCTGCCCGAGGACCGCCACATCGACCGCCTGGCCAAGCGCCAGCGCCCCGGCGAGCGCCTGGACCTGGCCATGCTGGCCGCCATCCGCCGCGTGTACGGCCTGCTGGCCAACACCGTGCGCTACCTGCAGTGCGGCGGCAGCTGGCGCGAGGACTGGGGCCAGCTGAGCGGCACCGCCGTGCCACCACAGGGCGCCGAGCCACAGAGCAACGCCGGACCACGACCACACATCGGCGACACCCTGTTCACCCTGTTCCGGGCACCAGAGCTGCTGGCACCAAACGGCGACCTGTACAACGTGTTCGCCTGGGCCCTGGACGTGCTGGCCAAGCGCCTGCGCTCCATGCACGTGTTCATCCTGGACTACGACCAGTCACCGGCCGGCTGCCGCGACGCCCTGCTGCAGCTGACCAGCGGCATGGTGCAGACCCACGTGACAACACCCGGCAGCATCCCAACAATCTGCGACCTGGCCCGCACCTTCGCCCGCGAGATGGGCGAGGCCAACTAATAGGGATCCCTCGAGAAGCTTGTCA
pro-drug GCV enzyme activity and selectivity for ability to kill cancer cells (cancer cells): exhibited pro-drug GCV enzyme activity and selectivity

B2: HSV-TK gene A168H and mutated at amino acids 159-161 from LIF to IFL: HSV-TK gene A168H also mutated at amino acids 159-161 from LIF to IFL (nucleic acid)
DNA: GTCAGCGGCCGCACCGGTACGCGTCCACCATGGCCAGCTACCCCGGCCACCAGCACGCCAGCGCCTTCGACCAGGCCGCCCGCAGCCGCGGCCACAGCAACGGCAGCACCGCACTGCGGCCACGGCGCCAGCAGGAGGCCACCGAGGTGCGCCCCGAGCAGAAGATGCCCACCCTGCTGCGCGTGTACATCGACGGACCACACGGCATGGGCAAGACCACCACCACCCAGCTGCTGGTGGCCCTGGGCAGCCGCGACGACATCGTGTACGTGCCCGAGCCCATGACCTACTGGCGCGTGCTGGGCGCCAGCGAGACCATCGCCAACATCTACACCACCCAGCACCGCCTGGACCAAGGCGAGATCAGCGCCGGCGACGCCGCCGTGGTGATGACCAGCGCCCAGATTACAATGGGCATGCCCTACGCCGTGACCGACGCCGTGCTGGCACCACACATCGGCGGCGAGGCCGGCAGCAGCCACGCACCACCACCAGCACTGACCATCTTCCTGGACCGGCACCCAATCGCACACCTGCTGTGCTACCCGGCAGCACGCTACCTGATGGGCTCCATGACACCACAAGCCGTGCTGGCCTTCGTGGCCCTGATCCCACCAACACTGCCCGGCACCAACATCGTGCTGGGCGCCCTGCCCGAGGACCGCCACATCGACCGCCTGGCCAAGCGCCAGCGCCCCGGCGAGCGCCTGGACCTGGCCATGCTGGCCGCCATCCGCCGCGTGTACGGCCTGCTGGCCAACACCGTGCGCTACCTGCAGTGCGGCGGCAGCTGGCGCGAGGACTGGGGCCAGCTGAGCGGCACCGCCGTGCCACCACAGGGCGCCGAGCCACAGAGCAACGCCGGACCACGACCACACATCGGCGACACCCTGTTCACCCTGTTCCGGGCACCAGAGCTGCTGGCACCAAACGGCGACCTGTACAACGTGTTCGCCTGGGCCCTGGACGTGCTGGCCAAGCGCCTGCGCTCCATGCACGTGTTCATCCTGGACTACGACCAGTCACCGGCCGGCTGCCGCGACGCCCTGCTGCAGCTGACCAGCGGCATGGTGCAGACCCACGTGACAACACCCGGCAGCATCCCAACAATCTGCGACCTGGCCCGCACCTTCGCCCGCGAGATGGGCGAGGCCAACTAATAGGGATCCCTCGAGAAGCTTGTCA
GCV mediated cancer kill activity (cancer cells; ganciclovir (GCV) pro-drug): exhibited GCV mediated cancer cell kill activity
